In patent publication US20260092085A1, “SYNTHETIC TRIPLEX PEPTIDE NUCLEIC ACID-BASED INHIBITORS FOR CANCER THERAPY” (University of Connecticut, priority 2022, published 2026):
{RR} = two arginine residues at the PNA terminus

How the values were obtained:
miR-155 = miR-155 gene expression in SUDHL-2 xenograft tumors; set-up: species or system NSG mice; settings: SUDHL-2 xenograft after in vivo treatment
Description: Data normalized with average control U6 (n=4) and represented as mean±standard error mean. Unpaired t test was used for statistical analysis. Further statistical analysis was performed relative to Scr-γtcPNA-155. **p<0.01, ***p<0.001.
Further, we corroborated our results in the SUDHL-2 derived xenograft mouse model. We injected the SUDHL-2 cells in the right and left flank of mice. After 14-21 days, when the tumor volume reached 100-200 mm3, the mice were randomized into three treatment groups based on uniform tumor volume distribution in each group. […] (FIG. 27)

Mcl-1 and Caspase-3 = assay: Western blot of Mcl-1 and Caspase-3 in U2932 cells; assay type: cell-based, human; settings: U2932, 500 nM
Description: FIGS. 3A-F show cell culture-based functional assay in U2932 lymphoma cells. (3A) γtcPNA-155-TAMRA uptake in the U2932 lymphoma cell line: Representative flow cytometry traces of TAMRA fluorescence in U2932 cells after treatment with 500 nM dose of γtcPNA-155-TAMRA for 48 hours. The data was analyzed by FlowJo software. (3B) Normalized miR-155 gene expression levels in U2932 after treatment with phosphate buffer saline (PBS) as a control and with 500 nM dose of Scr-γtcPNA-155, PNA-155, γPNA-155 and γtcPNA-155 for 48 hours compared to average control U6 (n=3), data represented as mean±standard error mean (SEM), Statistical analysis was performed using Unpaired two-tailed t-test. […] (3E) Representative western blot of Mcl-1 and its quantification (n=3 technical replicate) and (3F) Caspase-3 protein and its quantification (n=3 technical replicate) in U2932 cell line after treatment with 500 nM of Scr-γtcPNA-155, PNA-155 and γtcPNA-155 for 48 hours. […] Numbers above western blot panels represent relative quantification of the respective bands using ImageJ software and normalized relative to loading control and treatment control.
FIGS. 5A-B show representative western blot of Mcl-1 (5A) and Caspase-3 (5B) and its quantification (n=3) obtained from U2932 cell line after treatment with 500 nM of Scr-γtcPNA-155, γPNA-155 and γtcPNA-155 for 48 hours. […]

[1] = test system: miR-155 associated tumor suppressor genes; assay: Gene expression of miR-155 downstream tumor suppressor genes in SUDHL-2 cells; assay type: cell-based; settings: SUDHL-2, in comparison to Scr-γtcPNA-155 and PNA-155
Description: Data is normalized with average GAPDH control (n=3), and represented as mean±SEM, **p<0.01. Unpaired two tailed t-test was used for statistical analysis and the analysis was performed relative to Scr-gtcPNA-155.
Similarly, 400,000 SUDHL-2 cells were seeded in a 12 well plate and treated with 500 nM Scr gamma tcPNA-155, PNA-155 and gamma tcPNA-155 for 48 hrs in an incubator (37° C. and 5% CO2). The RNA was extracted and the samples for gene expression were prepared in the same manner as described above.

Row | Substance | miR-155 expression level in tumors (miR-155) | downregulation of Mcl-1 protein (western blot) (Mcl-1 and Caspase-3) | upregulation of Caspase-3 protein (western blot) (Mcl-1 and Caspase-3) | upregulation of miR-155 associated tumor suppressor genes [1]
1 | PNA-155: conventional full-length regular PNA (23mer), RR-ACCCCTATCACGATTAGCATTAA-RR, SEQ ID NO: 1 (all peptide nucleic acid (PNA), 5' {RR}, 3' {RR}) [reference compound] | significantly reduces miR-155 expression level |  |  | 
2 | γtcPNA-155: serine gamma tail-clamp anti-miR-155 PNA, RR-TJJJJ-OOO-ACCCCTATCACGATTAGCATTAA-RR, SEQ ID NO: 3 (all peptide nucleic acid (PNA); serine gamma PNA, tail-clamp TJJJJ via linkers, Arg-Arg at both ends) |  | 50% | 80% | significant upregulation
